Measured values from PubChem BioAssay (NCI).
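Grown in 96-well plates, cells were treated for 48 hours with each compound at five concentrations. Insufficient inhibition: endpoint recorded as highest concentration tested. TGI: concentration producing complete growth inhibition.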

Tests used:
Assay in all cases: NCI-60 cell line screen, 48 h
[1] = tested on: UACC-257 melanoma
[2] = tested on: OVCAR-8 ovarian
[3] = tested on: TK-10 renal
[4] = tested on: MOLT-4 leukemia
[5] = tested on: 786-0 renal
[6] = tested on: SK-MEL-2 melanoma
[7] = tested on: XF 498 CNS
[8] = tested on: HT29 colon
[9] = tested on: SK-OV-3 ovarian
[10] = tested on: DMS 114 small cell lung
[11] = tested on: UACC-62 melanoma
[12] = tested on: OVCAR-4 ovarian
[13] = tested on: RXF 393 renal
[14] = tested on: OVCAR-5 ovarian
[15] = tested on: M19-MEL melanoma
[16] = tested on: SF-295 CNS
[17] = tested on: DMS 273 small cell lung
[18] = tested on: UO-31 renal
[19] = tested on: M14 melanoma
[20] = tested on: HOP-92 NSCLC
[21] = tested on: IGROV1 ovarian
[22] = tested on: EKVX NSCLC
[23] = tested on: COLO 205 colon
[24] = tested on: NCI-H522 lung
[25] = tested on: HOP-62 NSCLC
[26] = tested on: U251 CNS
[27] = tested on: SF-268 CNS
[28] = tested on: DLD-1 colon
[29] = tested on: MALME-3M melanoma
[30] = tested on: K-562 leukemia
[31] = tested on: SNB-19 CNS
[32] = tested on: SR leukemia
[33] = tested on: SK-MEL-5 melanoma
[34] = tested on: SW-620 colon
[35] = tested on: HCT-116 colon
[36] = tested on: HCC-2998 colon
[37] = tested on: KM20L2 colon
[38] = tested on: HL-60(TB) leukemia
[39] = tested on: HCT-15 colon
[40] = tested on: A549 NSCLC
[41] = tested on: RPMI-8226 leukemia
[42] = tested on: SNB-75 CNS
[43] = tested on: CAKI-1 renal
[44] = tested on: SN12C renal
[45] = tested on: NCI-H460 lung
[46] = tested on: HOP-18 NSCLC
[47] = tested on: ACHN renal
[48] = tested on: NCI-H23 lung
[49] = tested on: OVCAR-3 ovarian
[50] = tested on: SK-MEL-28 melanoma
[51] = tested on: KM12 colon
[52] = tested on: SNB-78 CNS
[53] = tested on: SF-539 CNS
[54] = tested on: LXFL 529 NSCLC
[55] = tested on: LOX IMVI melanoma
[56] = tested on: CCRF-CEM leukemia
[57] = tested on: A498 renal

Which TGI [1] does the source give for `CCOC(=O)NC(=O)c1cn(-c2ccc(CCOC(=O)NCCCCCCNC(=O)OCCc3ccc(-n4c(=O)[nH]cc(C(=O)NC(=O)OCC)c4=O)cc3)cc2)c(=O)[nH]c1=O` here?
The TGI was > 100 µM.

What about the TGI [2] of the same molecule?
The TGI was > 100 µM.

What about the TGI [3] of the same molecule?
Its TGI is 97.5 µM.

And the TGI [4]?
Its TGI is > 100 µM.

And the TGI [5]?
Its TGI is > 100 µM.

And the TGI [6]?
The TGI was > 100 µM.

What about the TGI [7] of the same molecule?
Its TGI is > 48.9 µM.

And the TGI [8]?
The TGI was > 100 µM.

What about the TGI [9] of the same molecule?
The TGI was > 89.8 µM.

What about the TGI [10] of the same molecule?
Its TGI is > 100 µM.

What about the TGI [11] of the same molecule?
Its TGI is 60.6 µM.

What about the TGI [12] of the same molecule?
Its TGI is > 100 µM.

And the TGI [13]?
The TGI was > 100 µM.

What about the TGI [14] of the same molecule?
The TGI was > 100 µM.

What about the TGI [15] of the same molecule?
The TGI was > 94.8 µM.

And the TGI [16]?
The TGI was > 82.4 µM.

And the TGI [17]?
The TGI was > 100 µM.

And the TGI [18]?
The TGI was > 93.9 µM.

What about the TGI [19] of the same molecule?
The TGI was > 100 µM.

What about the TGI [20] of the same molecule?
The TGI was > 100 µM.

And the TGI [21]?
The TGI was > 100 µM.

What about the TGI [22] of the same molecule?
Its TGI is > 100 µM.

And the TGI [23]?
Its TGI is > 100 µM.

And the TGI [24]?
Its TGI is 68.6 µM.

And the TGI [25]?
The TGI was 72 µM.

And the TGI [26]?
The TGI was > 74.9 µM.

And the TGI [27]?
Its TGI is > 84.8 µM.

And the TGI [28]?
The TGI was > 100 µM.

What about the TGI [29] of the same molecule?
The TGI was > 91.9 µM.

What about the TGI [30] of the same molecule?
Its TGI is > 100 µM.

What about the TGI [31] of the same molecule?
The TGI was 51.4 µM.

And the TGI [32]?
Its TGI is > 100 µM.

What about the TGI [33] of the same molecule?
The TGI was > 100 µM.

And the TGI [34]?
The TGI was > 100 µM.

What about the TGI [35] of the same molecule?
Its TGI is > 100 µM.

And the TGI [36]?
The TGI was > 100 µM.

And the TGI [37]?
Its TGI is > 100 µM.

What about the TGI [38] of the same molecule?
The TGI was > 100 µM.

And the TGI [39]?
Its TGI is > 100 µM.

What about the TGI [40] of the same molecule?
The TGI was > 100 µM.

And the TGI [41]?
Its TGI is > 100 µM.

And the TGI [42]?
The TGI was 67.3 µM.

What about the TGI [43] of the same molecule?
Its TGI is > 100 µM.

What about the TGI [44] of the same molecule?
Its TGI is > 100 µM.

And the TGI [45]?
The TGI was > 76.8 µM.

And the TGI [46]?
Its TGI is > 100 µM.

And the TGI [47]?
The TGI was > 92.7 µM.

And the TGI [48]?
The TGI was > 100 µM.

And the TGI [49]?
Its TGI is > 100 µM.

And the TGI [50]?
The TGI was > 100 µM.

What about the TGI [51] of the same molecule?
Its TGI is > 100 µM.

What about the TGI [52] of the same molecule?
Its TGI is 98.8 µM.

What about the TGI [53] of the same molecule?
The TGI was 54.5 µM.

What about the TGI [54] of the same molecule?
The TGI was 69.7 µM.

What about the TGI [55] of the same molecule?
Its TGI is > 100 µM.

What about the TGI [56] of the same molecule?
The TGI was > 100 µM.

What about the TGI [57] of the same molecule?
The TGI was > 100 µM.
